In US8247211B2, “Glycopeptide antibiotics” (American Cyanamid Company, priority 2001, dated 2012):
Converted amounts (≈) assume the structure as drawn.

How the values were obtained:
[1] = system: Enterococcus sp.; assay: In vitro antibacterial evaluation: minimum inhibitory concentration (MIC), broth dilution method; format: cell-based
Method in brief: (§1)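 NCCLS M7-A2 broth dilution; Muller-Hinton II […]; 5×10^5 CFU/mL; 64-0.06 μg/mL. MIC = lowest concentration with no growth.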

[2] = system: Escherichia coli; assay: as above; format: cell-based; details: strain GC 4560
Method in brief: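 Test strains, among them recent clinical isolates carrying methicillin, penicillin and/or vancomycin resistance, were inoculated at 5×10^5 CFU/mL. A broth dilution series spanning 64-0.06 μg/mL in Muller-Hinton II […] (NCCLS M7-A2) defined the MIC as the lowest growth-inhibiting concentration.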

[3] = system: Staphylococcus sp.; assay: as above; format: cell-based; details: broth dilution, 18 hours at 35° C.
Method in brief: as §1

[4] = system: Streptococcus sp.; assay: as above; format: cell-based
Method in brief: as §1

[5] = system: Staphylococcus aureus-SMITH (GC 4543); assay: Acute lethal infection in mice (ED50); format: in vivo; details: female CD-1 mice, intraperitoneal challenge, intravenous dose 30 min. after infection, 7 day survival ratios
Method in brief: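 ED50 derived from pooled 7-day survival in three separate experiments, five mice per dose level. Single intravenous dose 30 min after intraperitoneal infection of female CD-1 mice with enough bacteria to kill untreated animals in 24-48 h.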

[6] = format: in vivo; details: mice, 20 mg/kg intravenously daily for 9 days, serum on day 10
Method: 20-day-old CD-1 mice were divided into a vehicle control group (5 mice) and a treatment group (5 mice). Samples of glycopeptide antibiotics were administered at 20 mg/kg intravenously daily for 9 days. Animals were necropsied on day 10 Sera were analyzed for BUN (blood urea nitrogen), creatinine, AST (aspartic aminotransferase), and ALT (alanine aminotransferase) by routine, standard, automated methods using an Hitachi 747 chemistry analyzer.

[7] = Anatomic pathology (heart and kidney histopathology) in mice; format: in vivo, CD-1 mice; details: 20 mg/kg intravenously daily for 9 days, microscopic histopathology on day 10
Method in brief: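 Histopathology on H&E-stained, paraffin-embedded sections, subjectively scored (slight, mild, moderate, marked, severe) relative to untreated controls. Dosing: glycopeptide antibiotics 20 mg/kg intravenously once daily ×9 days in 20-day-old CD-1 mice, n=5 per group including vehicle.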

Compound: CC(c1ccccc1)C1NC(=O)CNC(=O)C(CO)NC(=O)C(C(O)C2CN(Cc3ccc(-c4ccccc4)cc3)C(=N)N2C2OC(CO)C(O)C(O)C2O)NC(=O)C(C(O)C2CNC(=NCc3ccc(-c4ccccc4)cc3)N2Cc2ccc(-c3ccccc3)cc2)NC(=O)C(Cc2ccc(OC3OC(CO)C(OC4OC(CO)C(O)C(O)C4O)C(O)C3O)cc2)NC1=O (stereo not drawn) [Example 66]
- MIC Enterococcus avium (GC 4558) ([1]; Enterococcus avium (GC 4558), broth dilution, 18 hours at 35° C.): 4 µg/mL (≈ 2.23 µM)
- MIC Enterococcus faecalis (ATCC 29212) ([1]; Enterococcus faecalis (ATCC 29212), broth dilution, 18 hours at 35° C.): 16 µg/mL (≈ 8.92 µM)
- MIC Enterococcus faecalis (GC 2242) ([1]; Enterococcus faecalis (GC 2242), broth dilution, 18 hours at 35° C.): 16 µg/mL (≈ 8.92 µM)
- MIC Enterococcus faecalis (GC 2691) ([1]; Enterococcus faecalis (GC 2691), broth dilution, 18 hours at 35° C.): 32 µg/mL (≈ 17.8 µM)
- MIC Enterococcus faecalis (GC 3059) ([1]; Enterococcus faecalis (GC 3059), broth dilution, 18 hours at 35° C.): 32 µg/mL (≈ 17.8 µM)
- MIC Enterococcus faecalis (GC 4552) ([1]; Enterococcus faecalis (GC 4552), broth dilution, 18 hours at 35° C.): 32 µg/mL (≈ 17.8 µM)
- MIC Enterococcus faecalis (GC 4553) ([1]; Enterococcus faecalis (GC 4553), broth dilution, 18 hours at 35° C.): 8 µg/mL (≈ 4.46 µM)
- MIC Enterococcus faecalis (GC 4554) ([1]; Enterococcus faecalis (GC 4554), broth dilution, 18 hours at 35° C.): 64 µg/mL (≈ 35.7 µM)
- MIC Enterococcus faecalis (GC 6189) ([1]; Enterococcus faecalis (GC 6189), broth dilution, 18 hours at 35° C.): 32 µg/mL (≈ 17.8 µM)
- MIC Enterococcus faecium (GC 2243) ([1]; Enterococcus faecium (GC 2243), broth dilution, 18 hours at 35° C.): 8 µg/mL (≈ 4.46 µM)
- MIC Enterococcus faecium (GC 4556) ([1]; Enterococcus faecium (GC 4556), broth dilution, 18 hours at 35° C.): 32 µg/mL (≈ 17.8 µM)
- MIC Enterococcus faecium (GC 4557) ([1]; Enterococcus faecium (GC 4557), broth dilution, 18 hours at 35° C.): 4 µg/mL (≈ 2.23 µM)
- MIC Enterococcus faecalis (ATCC 29212) ([1]; strain ATCC 29212): 16 µg/mL (≈ 8.92 µM)
- MIC Enterococcus faecalis (GC 2242) ([1]; strain GC 2242): 16 µg/mL (≈ 8.92 µM)
- MIC Enterococcus faecium (GC 2243) ([1]; strain GC 2243): 8 µg/mL (≈ 4.46 µM)
- MIC Enterococcus faecalis (GC 2691) ([1]; strain GC 2691): 32 µg/mL (≈ 17.8 µM)
- MIC Enterococcus faecalis (GC 3059) ([1]; strain GC 3059): 32 µg/mL (≈ 17.8 µM)
- MIC Enterococcus faecalis (GC 4552) ([1]; strain GC 4552): 32 µg/mL (≈ 17.8 µM)
- MIC Enterococcus faecalis (GC 4553) ([1]; strain GC 4553): 8 µg/mL (≈ 4.46 µM)
- MIC Enterococcus faecalis (GC 4554) ([1]; strain GC 4554): 64 µg/mL (≈ 35.7 µM)
- MIC Enterococcus faecium (GC 4556) ([1]; strain GC 4556): 32 µg/mL (≈ 17.8 µM)
- MIC Enterococcus faecium (GC 4557) ([1]; strain GC 4557): 4 µg/mL (≈ 2.23 µM)
- MIC Enterococcus avium (GC 4558) ([1]; strain GC 4558): 4 µg/mL (≈ 2.23 µM)
- MIC Enterococcus faecalis (GC 6189) ([1]; strain GC 6189): 32 µg/mL (≈ 17.8 µM)
- MIC Escherichia coli (GC 4560) [2]: 4 µg/mL (≈ 2.23 µM)
- MIC Coagulase Negative Staphylococcus (GC 4547) [3]: 4 µg/mL (≈ 2.23 µM)
- MIC Coagulase Negative Staphylococcus (GC 4548) [3]: 8 µg/mL (≈ 4.46 µM)
- MIC Coagulase Negative Staphylococcus (GC 4549) [3]: 4 µg/mL (≈ 2.23 µM)
- MIC Coagulase Negative Staphylococcus (GC 4551) [3]: 8 µg/mL (≈ 4.46 µM)
- MIC Coagulase Negative Staphylococcus (GC 6257) [3]: 4 µg/mL (≈ 2.23 µM)
- MIC Staphylococcus aureus (ATCC 29213) [3]: 8 µg/mL (≈ 4.46 µM)
- MIC Staphylococcus aureus (GC 1131) [3]: 16 µg/mL (≈ 8.92 µM)
- MIC Staphylococcus aureus (GC 3051) [3]: 8 µg/mL (≈ 4.46 µM)
- MIC Staphylococcus aureus (GC 3053) [3]: 8 µg/mL (≈ 4.46 µM)
- MIC Staphylococcus aureus (GC 4541) [3]: 8 µg/mL (≈ 4.46 µM)
- MIC Staphylococcus aureus (GC 4542) [3]: 8 µg/mL (≈ 4.46 µM)
- MIC Staphylococcus aureus (GC 4544) [3]: 8 µg/mL (≈ 4.46 µM)
- MIC Staphylococcus aureus (GC 4545) [3]: 4 µg/mL (≈ 2.23 µM)
- MIC Staphylococcus aureus SMITH (GC 4543) [3]: 8 µg/mL (≈ 4.46 µM)
- MIC Staphylococcus haemolyticus (GC 4546) [3]: 4 µg/mL (≈ 2.23 µM)
- MIC Staphylococcus aureus (ATCC 29213) ([3]; strain ATCC 29213): 8 µg/mL (≈ 4.46 µM)
- MIC Staphylococcus aureus (GC 1131) ([3]; strain GC 1131): 16 µg/mL (≈ 8.92 µM)
- MIC Staphylococcus aureus (GC 3051) ([3]; strain GC 3051): 8 µg/mL (≈ 4.46 µM)
- MIC Staphylococcus aureus (GC 3053) ([3]; strain GC 3053): 8 µg/mL (≈ 4.46 µM)
- MIC Staphylococcus aureus (GC 4541) ([3]; strain GC 4541): 8 µg/mL (≈ 4.46 µM)
- MIC Staphylococcus aureus (GC 4542) ([3]; strain GC 4542): 8 µg/mL (≈ 4.46 µM)
- MIC Staphylococcus aureus (GC 4544) ([3]; strain GC 4544): 8 µg/mL (≈ 4.46 µM)
- MIC Staphylococcus aureus (GC 4545) ([3]; strain GC 4545): 4 µg/mL (≈ 2.23 µM)
- MIC Coagulase Negative Staphylococcus (GC 4547) ([3]; strain GC 4547): 4 µg/mL (≈ 2.23 µM)
- MIC Coagulase Negative Staphylococcus (GC 4548) ([3]; strain GC 4548): 8 µg/mL (≈ 4.46 µM)
- MIC Coagulase Negative Staphylococcus (GC 4549) ([3]; strain GC 4549): 4 µg/mL (≈ 2.23 µM)
- MIC Coagulase Negative Staphylococcus (GC 4551) ([3]; strain GC 4551): 8 µg/mL (≈ 4.46 µM)
- MIC Coagulase Negative Staphylococcus (GC 6257) ([3]; strain GC 6257): 4 µg/mL (≈ 2.23 µM)
- MIC Staphylococcus aureus-SMITH (GC 4543) ([3]; strain SMITH GC 4543): 8 µg/mL (≈ 4.46 µM)
- MIC Streptococcus agalactiae (GC 4564) ([4]; Streptococcus agalactiae (GC 4564), broth dilution, 18 hours at 35° C.): 32 µg/mL (≈ 17.8 µM)
- MIC Streptococcus pneumoniae (ATCC 6301) ([4]; Streptococcus pneumoniae (ATCC 6301), broth dilution, 18 hours at 35° C.): 32 µg/mL (≈ 17.8 µM)
- MIC Streptococcus pneumoniae (GC 1894) ([4]; Streptococcus pneumoniae (GC 1894), broth dilution, 18 hours at 35° C.): 32 µg/mL (≈ 17.8 µM)
- MIC Streptococcus pneumoniae (GC 4565) ([4]; Streptococcus pneumoniae (GC 4565), broth dilution, 18 hours at 35° C.): 64 µg/mL (≈ 35.7 µM)
- MIC Streptococcus pyogenes (GC 4563) ([4]; Streptococcus pyogenes (GC 4563), broth dilution, 18 hours at 35° C.): 16 µg/mL (≈ 8.92 µM)
- MIC Streptococcus pneumoniae (ATCC 6301) ([4]; strain ATCC 6301): 32 µg/mL (≈ 17.8 µM)
- MIC Streptococcus pneumoniae (GC 1894) ([4]; strain GC 1894): 32 µg/mL (≈ 17.8 µM)
- MIC Streptococcus pyogenes (GC 4563) ([4]; strain GC 4563): 16 µg/mL (≈ 8.92 µM)
- MIC Streptococcus agalactiae (GC 4564) ([4]; strain GC 4564): 32 µg/mL (≈ 17.8 µM)
- MIC Streptococcus pneumoniae (GC 4565) ([4]; strain GC 4565): 64 µg/mL (≈ 35.7 µM)
- median effective dose (ED50), Staphylococcus aureus-SMITH (GC 4543) [5]: >8
- Clinical Chemistry (Day 10) % of Control, ALT [6]: 182%
- Clinical Chemistry (Day 10) % of Control, AST [6]: 147%
- Anatomical Pathology (Day 10), Heart [7]: 0
- Anatomical Pathology (Day 10), Kidney [7]: 0
